Experimental findings from patent US20140065103A1 (VERTEX PHARMACEUTICALS INCORPORATED, priority 2010, published 2014) are described below.

Where only a bound is given, the exact number is not on record here.

In data set [1] the test system is HCV sub-genomic replicon of genotype 1a in replicon cell line W11.8. The data set is described as follows: microbe, parasite or virus in culture. To be noted: read-out: HCV-Replicon-ELISA-1a IC50. Type of data set: cell-based, Hepatitis C virus. A general note: In antiviral work, replicon cells carry a viral genome segment that copies itself.
The subject of data set [2] is Huh-7 ET, Molt-4, DU-145, Hep-G2 and SH-SY5Y cells. The data set can be described thus: [3H]Thymidine incorporation assay (cytotoxicity, CC50). To be noted: [3H]thymidine incorporation; cell line not given. A general note: Dividing cells build labelled thymidine or BrdU into new DNA.
The subject of data set [3] is HCV replicon (genotype 1b) in Huh7 hepatoma cell line ET. The data set is described as follows: microbe, parasite or virus in culture. To be noted: Hepatitis C virus, Huh-7, 96 h, read-out: HCV-Replicon-1b_IC50. Type of data set: cell-based, Hepatitis C virus.

The CC50 is the concentration at which the toxic effect on the cells reaches its halfway point. Low readings indicate greater toxicity to the cells, high ones lower toxicity to the cells. As for `CC(C)c1noc(C(C)N(c2cc(C#CC(C)(C)C)sc2C(=O)O)C(=O)[C@H]2CC[C@H](C)CC2)n1` (some centres unmarked) [Compound 79], in data set [1], the IC50 was in the range of 0.1 to 1 µM. This compound also had a cytotoxic concentration (CC50) in data set [2] of 10 to 100 µM.
Take `Cc1ccc(C(=O)N(c2cc(C#CC(C)(C)C)sc2C(=O)O)[C@H]2CC[C@H](O)CC2)c(C)c1` [Compound 83, 3-[(2,4-Dimethyl-benzoyl)-(trans-4-hydroxy-cyclohexyl)-amino]-5-(3,3-dimethyl-but-1-ynyl)-thiophene-2-carboxylic acid]: in data set [3], the IC50 fell in the range of 0.1 to 1 µM.
In the case of `CC(=O)N1CC[C@@H](N(c2cc(C#CC(C)(C)C)sc2C(=O)O)C(=O)[C@H]2CC[C@H](C)CC2)C1` (stereo in doubt) [Compound 60, 3-(N—((R)-1-Acetylpyrrolidin-3-yl)-4-trans-methylcyclohexane-carboxamido)-5-(3,3-dimethylbut-1-yn-1-yl)thiophene-2-carboxylic acid], the IC50 in data set [1] fell in the range of 0.1 to 1 µM. Moreover, the cytotoxic concentration (CC50) in data set [2] was above 100 µM.
`CC(=O)N1CC[C@H](N(c2cc(C#CC(C)(C)C)sc2C(=O)O)C(=O)[C@H]2CC[C@H](C)CC2)C1` (stereo in doubt) [Compound 59, 3-(N—((S)-1-Acetylpyrrolidin-3-yl)-4-trans-methylcyclohexanecarboxamido)-5-(3,3-dimethylbut-1-yn-1-yl)thiophene-2-carboxylic acid]: the IC50 in data set [1] was below 0.1 µM. The same compound yielded a CC50 in data set [2] above 100 µM.
On the same counts, the results for `COCC(COC)N(c1cc(C#CC(C)(C)C)sc1C(=O)O)C(=O)[C@H]1CC[C@H](C)CC1` [Compound 39, 3-(-N-(1,3-Dimethoxypropan-2-yl)-4-trans-methylcyclohexanecarboxamido)-5-(3,3-dimethylbut-1-yn-1-yl)thiophene-2-carboxylic acid] are 0.1 to 1 µM and 10 to 100 µM.
For `CC(C)C#Cc1cc(N(C(=O)[C@H]2CC[C@H](C)CC2)[C@H]2CC[C@H](OCCO)CC2)c(C(=O)O)s1` [Compound 62, 5-(3-Methylbut-1-yn-1-yl)-3-((N-4-trans-(2-hydroxy)-ethoxycyclohexyl)-(4-trans-methylcyclohexane)carboxamido)thiophene-2-carboxylic acid], in that order: below 0.1 µM and 10 to 100 µM.
For “5-(3,3-dimethylbut-1-yn-1-yl)-3-(trans-4-methyl-N—((R)-1-methylsulfonyl)pyrrolidin-3-yl)thiophene-2-carboxylic acid [Compound 69]”, in that order: below 0.1 µM and above 100 µM.
In the case of `CC(Cn1cccn1)N(c1cc(C#CC(C)(C)C)sc1C(=O)O)C(=O)[C@H]1CC[C@H](C)CC1` (stereo partly drawn) [Compound 80, 5-(3,3-Dimethylbut-1-ynyl)-3-[(4-trans-methylcyclohexanecarbonyl)-(1-methyl-2-pyrazol-1-yl-ethyl)amino]thiophene-2-carboxylic acid], the IC50 in data set [1] is below 0.1 µM. In data set [2], the cytotoxic concentration (CC50) fell in the range of 10 to 100 µM.
With `CN(C)C[C@H]1C[C@H](N(c2cc(C#CC(C)(C)C)sc2C(=O)O)C(=O)[C@H]2CC[C@H](C)CC2)C1` [Compound 70, 5-(3,3-Dimethylbut-1-yn-1-yl)-3-(trans-4-methyl-N((trans-3-(dimethylamino)methyl)cyclobutyl)cyclohexanecarboxamido)thiophene-2 carboxylic acid], the IC50 in data set [1] is below 0.1 µM. Moreover, the CC50 in data set [2] is above 100 µM.
For `CCc1noc(CN(c2cc(C#CC(C)(C)C)sc2C(=O)O)C(=O)[C@H]2CC[C@H](C)CC2)n1` [Compound 78, 5-(3,3-dimethylbut-1-ynyl)-3-[(3-ethyl-1,2,4-oxadiazol-5-yl)methyl-(4-trans-methylcyclohexanecarbonyl)amino]thiophene-2-carboxylic acid], in that order: below 0.1 µM and 10 to 100 µM.
In the case of `CC(C)(C)C#Cc1cc(N(Cc2ccccc2)C(=O)[C@H]2CC[C@H](C)CC2)c(C(=O)O)s1` [Compound 74, 3-[Benzyl-(4-trans-methylcyclohexanecarbonyl)amino]-5-(3,3-dimethylbut-1-ynyl)thiophene-2-carboxylic acid], in data set [1], the IC50 was 0.1 to 1 µM. The same compound showed a CC50 in data set [2] of 10 to 100 µM.
“5-(3,3-dimethylbut-1-yn-1-yl)-3-(trans-4-methyl-N-((S)-1-methylsulfonyl)pyrrolidin-3-yl)thiophene-2-carboxylic acid [Compound 68]”: the IC50 in data set [1] is below 0.1 µM. This compound also showed a CC50 in data set [2] above 100 µM.
On the same counts, the results for `CC[C@@H](C(=O)O)N(c1cc(C#CC(C)(C)C)sc1C(=O)O)C(=O)[C@H]1CC[C@H](C)CC1` (relative stereo) [Compound 41, 3-(N—((S)-1-carboxypropyl)-(4-trans-methylcyclohexane)-carboxamido)-5-(3,3-dimethylbut-1-yn-1-yl)thiophene-2-carboxylic acid] are below 0.1 µM and above 100 µM.
For `CC(C)C#Cc1cc(N(C(=O)[C@H]2CC[C@H](C)CC2)C2CCOCC2)c(C(=O)O)s1` [Compound 43, 3-(N-(tetrahydro-2H-pyran-4-yl)-4-trans-methyl-cyclohexanecarboxamido)-5-(3-methylbut-1-yn-1-yl)thiophene-2-carboxylic acid], in that order: below 0.1 µM and 10 to 100 µM.
Consider `Cc1noc(C)c1CN(c1cc(C#CC(C)(C)C)sc1C(=O)O)C(=O)[C@H]1CC[C@H](C)CC1` [Compound 54, 5-(3,3-Dimethylbut-1-yn-1-yl)-3-(N-((3,5-dimethylisoxazol-4-yl)methyl)-4-trans-methylcyclohexanecarboxamido)thiophene-2-carboxylic acid], for which the IC50 in data set [1] was below 0.1 µM. This compound also came in with a CC50 in data set [2] of 10 to 100 µM.
On to `COCCN(c1cc(C#CC(C)(C)C)sc1C(=O)O)C(=O)[C@H]1CC[C@H](C)CC1` [Compound 29, 5-(3,3-Dimethylbut-1-ynyl)-3-(N-(2-methoxyethyl)-4-trans-methylcyclohexanecarboxamido)thiophene-2-carboxylic acid], for which the IC50 in data set [1] is below 0.1 µM. For the same compound, in data set [2], the CC50 lay in the range of 10 to 100 µM.
On the same counts, the results for `CCc1noc(C(C)N(c2cc(C#CC(C)(C)C)sc2C(=O)O)C(=O)[C@H]2CC[C@H](C)CC2)n1` (some centres unmarked) [Compound 75] are below 0.1 µM and 10 to 100 µM.
On the same counts, the results for `CC(CN(c1cc(C#CC(C)(C)C)sc1C(=O)O)C(=O)[C@H]1CC[C@H](C)CC1)n1cccn1` (stereo partly drawn) [Compound 73, 5-(3,3-Dimethylbut-1-ynyl)-3-[(4-trans-methylcyclohexanecarbonyl)-(2-pyrazol-1-ylpropyl)amino]thiophene-2-carboxylic acid] are below 0.1 µM and 10 to 100 µM.
For “3-[Cyclohex-3-enyl-(trans-4-methyl-cyclohexanecarbonyl)-amino]-5-(3,3-dimethyl-but-1-ynyl)-thiophene-2-carboxylic acid [Compound 13]”, the IC50 in data set [1] lay in the range of 1 to 10 µM. In data set [2], this compound displayed a CC50 of 10 to 100 µM.
Consider `Cc1ccc(C(=O)N(c2cc(C#CC(C)(C)C)sc2C(=O)O)[C@H]2CC[C@H](O)CC2)cc1F` [Compound 93, 5-(3,3-Dimethyl-but-1-ynyl)-3-[(3-fluoro-4-methyl-benzoyl)-(trans-4-hydroxy-cyclohexyl)-amino]thiophene-2-carboxylic acid], for which, in data set [3], the IC50 lay in the range of 0.1 to 1 µM.
